Source: ChEMBL document CHEMBL1201862, “PubChem BioAssay data set” (2004)
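Tested at 5 concentrations; 48 h exposure; 96-well plates; endpoints linearly interpolated, else capped at highest concentration. At the GI50, growth is halved.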 The source made the active and inactive calls. Rule as the data show it: active = GI50 up to about 1.1 µM and inactive = higher.

Columns and labels:
Assay in all cases: DTP human tumour cell line panel, 48 h
A498 = test system: A498
MDA-MB-231 = test system: MDA-MB-231
BT-549 = test system: BT-549
SK-MEL-28 = test system: SK-MEL-28
SK-MEL-2 = test system: SK-MEL-2
MCF7 = test system: MCF7
OVCAR-4 = test system: OVCAR-4
Hs-578T = test system: Hs-578T
MDA-N = test system: MDA-N
HL-60 = test system: HL-60
NCI-H23 = test system: NCI-H23
CAKI-1 = test system: CAKI-1
OVCAR-5 = test system: OVCAR-5
PC-3 = test system: PC-3
HOP-92 = test system: HOP-92
SF-295 = test system: SF-295
HT-29 = test system: HT-29
TK-10 = test system: TK-10
HCT-116 = test system: HCT-116
Malme-3M = test system: Malme-3M
SF-268 = test system: SF-268
SK-MEL-5 = test system: SK-MEL-5
NCI-H460 = test system: NCI-H460
CCRF-CEM = test system: CCRF-CEM
EKVX = test system: EKVX
ACHN = test system: ACHN
HOP-62 = test system: HOP-62
T47D = test system: T47D
SW-620 = test system: SW-620
HCT-15 = test system: HCT-15
DU-145 = test system: DU-145
UACC-257 = test system: UACC-257
IGROV-1 = test system: IGROV-1
NCI/ADR-RES = test system: NCI/ADR-RES
LOX IMVI = test system: LOX IMVI
MDA-MB-435 = test system: MDA-MB-435
SNB-75 = test system: SNB-75
786-0 = test system: 786-0
RXF 393 = test system: RXF 393
KM12 = test system: KM12
OVCAR-3 = test system: OVCAR-3
SK-OV-3 = test system: SK-OV-3
UACC-62 = test system: UACC-62
SNB-19 = test system: SNB-19
SF-539 = test system: SF-539
K562 = test system: K562
A549 = test system: A549
NCI-H226 = test system: NCI-H226
MOLT-4 = test system: MOLT-4
NCI-H522 = test system: NCI-H522
UO-31 = test system: UO-31
OVCAR-8 = test system: OVCAR-8
U-251 = test system: U-251
M14 = test system: M14
RPMI-8226 = test system: RPMI-8226
COLO 205 = test system: COLO 205
SR = test system: SR
SN12C = test system: SN12C
HCC 2998 = test system: HCC 2998

CC(C)=CCNc1ncnc2[nH]cnc12
GI50 (A498): > 100 µM (inactive)
GI50 (MDA-MB-231): > 100 µM (inactive)
GI50 (BT-549): > 100 µM (inactive)
GI50 (SK-MEL-28): > 100 µM (inactive)
GI50 (SK-MEL-2): > 100 µM (inactive)
GI50 (MCF7): > 100 µM (inactive)
GI50 (OVCAR-4): > 100 µM (inactive)
GI50 (Hs-578T): > 100 µM (inactive)
GI50 (MDA-N): > 100 µM (inactive)
GI50 (HL-60): > 100 µM (inactive)
GI50 (NCI-H23): > 100 µM (inactive)
GI50 (CAKI-1): > 100 µM (inactive)
GI50 (OVCAR-5): > 100 µM (inactive)
GI50 (PC-3): > 100 µM (inactive)
GI50 (HOP-92): > 100 µM (inactive)
GI50 (SF-295): > 100 µM (inactive)
GI50 (HT-29): > 100 µM (inactive)
GI50 (TK-10): > 100 µM (inactive)
GI50 (HCT-116): > 100 µM (inactive)
GI50 (Malme-3M): > 100 µM (inactive)
GI50 (SF-268): > 100 µM (inactive)
GI50 (SK-MEL-5): 87.7 µM (inactive)
GI50 (NCI-H460): > 100 µM (inactive)
GI50 (CCRF-CEM): > 100 µM (inactive)
GI50 (EKVX): > 100 µM (inactive)
GI50 (ACHN): > 100 µM (inactive)
GI50 (HOP-62): > 100 µM (inactive)
GI50 (T47D): > 100 µM (inactive)
GI50 (SW-620): > 100 µM (inactive)
GI50 (HCT-15): > 100 µM
GI50 (DU-145): > 100 µM (inactive)
GI50 (UACC-257): 37.1 µM (inactive)
GI50 (IGROV-1): > 100 µM (inactive)
GI50 (NCI/ADR-RES): > 100 µM (inactive)
GI50 (LOX IMVI): > 100 µM (inactive)
GI50 (MDA-MB-435): > 100 µM (inactive)
GI50 (SNB-75): > 100 µM (inactive)
GI50 (786-0): > 100 µM (inactive)
GI50 (RXF 393): > 100 µM (inactive)
GI50 (KM12): 99.8 µM (inactive)
GI50 (OVCAR-3): > 100 µM (inactive)
GI50 (SK-OV-3): > 100 µM (inactive)
GI50 (UACC-62): 88.5 µM (inactive)
GI50 (SNB-19): > 100 µM (inactive)
GI50 (SF-539): > 100 µM (inactive)
GI50 (K562): > 100 µM (inactive)
GI50 (A549): > 100 µM (inactive)
GI50 (NCI-H226): 90.2 µM (inactive)
GI50 (MOLT-4): > 100 µM (inactive)
GI50 (NCI-H522): > 100 µM (inactive)
GI50 (UO-31): > 100 µM (inactive)
GI50 (OVCAR-8): > 100 µM (inactive)
GI50 (U-251): > 100 µM (inactive)
GI50 (M14): > 100 µM (inactive)
GI50 (RPMI-8226): > 100 µM (inactive)
GI50 (COLO 205): > 100 µM (inactive)
GI50 (SR): > 100 µM (inactive)
GI50 (SN12C): > 100 µM (inactive)

CC1(C)[C@H]2CC[C@](C)(C2)[C@]1(S)Cc1ccccn1
GI50 (A498): > 100 µM (inactive)
GI50 (MDA-MB-231): 37 µM (inactive)
GI50 (BT-549): 90.4 µM (inactive)
GI50 (SK-MEL-28): > 100 µM (inactive)
GI50 (SK-MEL-2): 20.8 µM (inactive)
GI50 (MCF7): 32.5 µM (inactive)
GI50 (Hs-578T): 57.8 µM (inactive)
GI50 (MDA-N): 39.3 µM (inactive)
GI50 (HL-60): 11.2 µM (inactive)
GI50 (NCI-H23): 44.6 µM (inactive)
GI50 (CAKI-1): 57.1 µM (inactive)
GI50 (OVCAR-5): 88.9 µM (inactive)
GI50 (PC-3): 21.7 µM (inactive)
GI50 (HOP-92): 34.5 µM (inactive)
GI50 (SF-295): 26.4 µM (inactive)
GI50 (HT-29): 24.9 µM (inactive)
GI50 (TK-10): 32.4 µM (inactive)
GI50 (HCT-116): 32.8 µM (inactive)
GI50 (Malme-3M): 46.1 µM (inactive)
GI50 (SF-268): 39.7 µM (inactive)
GI50 (SK-MEL-5): 21.8 µM (inactive)
GI50 (NCI-H460): 27.2 µM (inactive)
GI50 (CCRF-CEM): 5 µM (inactive)
GI50 (EKVX): 46.5 µM (inactive)
GI50 (ACHN): 54.2 µM (inactive)
GI50 (HOP-62): 29.6 µM (inactive)
GI50 (T47D): 24.5 µM (inactive)
GI50 (SW-620): 36.3 µM (inactive)
GI50 (HCT-15): 41.7 µM
GI50 (DU-145): 22.4 µM (inactive)
GI50 (UACC-257): 25.6 µM (inactive)
GI50 (IGROV-1): 30.8 µM (inactive)
GI50 (NCI/ADR-RES): 50.5 µM (inactive)
GI50 (LOX IMVI): 17.3 µM (inactive)
GI50 (MDA-MB-435): 26.3 µM (inactive)
GI50 (SNB-75): 23.9 µM (inactive)
GI50 (786-0): 27 µM (inactive)
GI50 (RXF 393): 26.7 µM (inactive)
GI50 (KM12): 42.9 µM (inactive)
GI50 (OVCAR-3): 21.7 µM (inactive)
GI50 (SK-OV-3): 29.8 µM (inactive)
GI50 (UACC-62): 67.8 µM (inactive)
GI50 (SNB-19): > 100 µM (inactive)
GI50 (SF-539): > 100 µM (inactive)
GI50 (K562): 26.3 µM (inactive)
GI50 (HCC 2998): 18.5 µM (inactive)
GI50 (A549): 42.7 µM (inactive)
GI50 (MOLT-4): 15.3 µM (inactive)
GI50 (NCI-H522): 65.9 µM (inactive)
GI50 (UO-31): > 100 µM (inactive)
GI50 (OVCAR-8): 17.5 µM (inactive)
GI50 (U-251): 14.4 µM (inactive)
GI50 (M14): 84.1 µM (inactive)
GI50 (RPMI-8226): 21.5 µM (inactive)
GI50 (COLO 205): 34.3 µM (inactive)
GI50 (SR): 18.1 µM (inactive)
GI50 (SN12C): 56.8 µM (inactive)
